Test results from US8580825B2, “Oxadiazole inhibitors of leukotriene production” (Boehringer Ingelheim International GmbH, priority 2010, dated 2013).

Columns and labels:
[1] = tested on: synthesis of LTB4 in human whole blood; assay: human whole blood LTB4 production inhibition assay; type: cell-based; conditions: calcimycin stimulated, read-out: hWB LTB4 IC50
Outline: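 Heparinized human whole blood preincubated with compound 15 min at 37 °C, then stimulated with calcimycin (20 μM final) for 30 min at 37 °C. Plasma LTB4 measured after low-speed centrifugation by antibody-based homogeneous time-resolved fluorescence.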

[2] = target: T1, recombinant human FLAP protein (Homo sapiens, UniProt P20292); assay: FLAP binding assay (Scintillation Proximity Assay, displacement of [125I]L-691,831); conditions: for IC50: read-out: FLAP SPA IC50
T1 construct: made in house; host or cells: Sf9 insect cells (100,000xg membrane fraction used)
T1 sequence (P20292 1-161): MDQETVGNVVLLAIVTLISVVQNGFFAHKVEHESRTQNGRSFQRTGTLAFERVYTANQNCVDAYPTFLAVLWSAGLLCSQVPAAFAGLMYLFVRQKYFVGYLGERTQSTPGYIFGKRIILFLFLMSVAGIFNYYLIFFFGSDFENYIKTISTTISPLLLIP
Outline: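 Scintillation proximity displacement of [125I]L-691,831 (0.08 nM) from membranes of sf9 cells expressing recombinant human FLAP (5 μg/well) on WGA SPA beads, pH 7.5 Tris buffer. Plates shaken 2 h before counting. Non-specific binding defined with 10 μM unlabelled L-691,831.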

## CC(C)[C@](C)(c1ccc(-c2cnc(N)cn2)nc1)c1noc(-c2cnn(C)c2)n1 [Example 77, 5-(5-{(2R)-3-methyl-2-[5-(1-methyl-1H-pyrazol-4-yl)-1,2,4-oxadiazol-3-yl]butan-2-yl}pyridin-2-yl)pyrazin-2-amine]
[1]
  IC50: 15 nM
[2]
  IC50: 0.14 nM

## C[C@@](c1ccc(-c2cnc(N)nc2)nc1)(c1noc(-c2cnn(C3COC3)c2)n1)C1CC1 [Example 78, 5-{5-[(1R)-1-cyclopropyl-1-{5-[1-(oxetan-3-yl)-1H-pyrazol-4-yl]-1,2,4-oxadiazol-3-yl}ethyl]pyridin-2-yl}pyrimidin-2-amine]
[1]
  IC50: 29 nM
[2]
  IC50: 8 nM

## C[C@](c1ccc(-c2cnc(N)nc2)nc1)(c1noc(-c2cnn(C3COC3)c2)n1)C1CC1 [Example 79, 5-{5-[(1S)-1-cyclopropyl-1-{5-[1-(oxetan-3-yl)-1H-pyrazol-4-yl]-1,2,4-oxadiazol-3-yl}ethyl]pyridin-2-yl}pyrimidin-2-amine]
[1]
  IC50: 650 nM
[2]
  IC50: 140 nM

## CNC(=O)Cn1cc(-c2nc(C(C)(c3ccc(-c4cnc(N)nc4)nc3)C(C)C)no2)cn1 (stereo not drawn) [Example 80, 2-[4-(3-{2-[6-(2-aminopyrimidin-5-yl)pyridin-3-yl]-3-methylbutan-2-yl}-1,2,4-oxadiazol-5-yl)-1H-pyrazol-1-yl]-N-methylacetamide]
[1]
  IC50: 230 nM
[2]
  IC50: 5.6 nM

## CN(C)C(=O)Cn1cc(-c2nc([C@@](C)(c3ccc(-c4cnc(N)nc4)nc3)C3CC3)no2)cn1 [Example 83, 2-[4-(3-{(1R)-1-[6-(2-aminopyrimidin-5-yl)pyridin-3-yl]-1-cyclopropylethyl}-1,2,4-oxadiazol-5-yl)-1H-pyrazol-1-yl]-N,N-dimethylacetamide]
[1]
  IC50: 200 nM
[2]
  IC50: 76 nM

## CN(C)C(=O)Cn1cc(-c2nc([C@](C)(c3ccc(-c4cnc(N)nc4)nc3)C3CC3)no2)cn1 [Example 84, 2-[4-(3-{(1S)-1-[6-(2-aminopyrimidin-5-yl)pyridin-3-yl]-1-cyclopropylethyl}-1,2,4-oxadiazol-5-yl)-1H-pyrazol-1-yl]-N,N-dimethylacetamide]
[1]
  IC50: 2900 nM
[2]; read-out: FLAP SPA inhibition at 1 uM
  inhibition at 1 µM: 45%

## CC(C)C(C)(c1ccc(-c2cnc(N)nc2)nc1)c1noc(-c2cn(CC(C)(C)O)cn2)n1 (stereo not drawn) [Example 85, 1-[4-(3-{2-[6-(2-aminopyrimidin-5-yl)pyridin-3-yl]-3-methylbutan-2-yl}-1,2,4-oxadiazol-5-yl)-1H-imidazol-1-yl]-2-methylpropan-2-ol]
[1]
  IC50: 1900 nM
[2]
  IC50: 350 nM

## Cn1cc(-c2nc(C(C)(C)c3ccc(-c4cnc(N)nc4)nc3)no2)cn1 [Example 86, 5-(5-{2-[5-(1-methyl-1H-pyrazol-4-yl)-1,2,4-oxadiazol-3-yl]propan-2-yl}pyridin-2-yl)pyrimidin-2-amine]
[1]
  IC50: 790 nM
[2]
  IC50: 140 nM

## CC(C)(c1ccc(-c2cnc(N)nc2)nc1)c1noc(-c2cn[nH]c2)n1 [Example 87, 5-(5-{2-[5-(1H-pyrazol-4-yl)-1,2,4-oxadiazol-3-yl]propan-2-yl}pyridin-2-yl)pyrimidin-2-amine]
[1]
  IC50: > 5000 nM
[2]
  IC50: 670 nM

## CC(C)(O)Cn1cc(-c2nc(C(C)(C)c3ccc(-c4cnc(N)nc4)nc3)no2)cn1 [Example 88, 1-[4-(3-{2-[6-(2-aminopyrimidin-5-yl)pyridin-3-yl]propan-2-yl}-1,2,4-oxadiazol-5-yl)-1H-pyrazol-1-yl]-2-methylpropan-2-ol]
[1]
  IC50: 1500 nM
[2]
  IC50: 370 nM

## COCCn1cc(-c2nc(C(C)(C)c3ccc(-c4cnc(N)nc4)nc3)no2)cn1 [Example 89, 5-[5-(2-{5-[1-(2-methoxyethyl)-1H-pyrazol-4-yl]-1,2,4-oxadiazol-3-yl}propan-2-yl)pyridin-2-yl]pyrimidin-2-amine]
[1]
  IC50: 880 nM
[2]
  IC50: 230 nM

## COC(=O)C(C)(C)n1cc(-c2nc(C(C)(C)c3ccc(-c4cnc(N)nc4)nc3)no2)cn1 [Example 90, methyl 2-[4-(3-{2-[6-(2-aminopyrimidin-5-yl)pyridin-3-yl]propan-2-yl}-1,2,4-oxadiazol-5-yl)-1H-pyrazol-1-yl]-2-methylpropanoate]
[1]
  IC50: 950 nM
[2]
  IC50: 140 nM

## COCCOCCn1cc(-c2nc(C(C)(C)c3ccc(-c4cnc(N)nc4)nc3)no2)cn1 [Example 91, 5-{5-[2-(5-{1-[2-(2-methoxyethoxy)ethyl]-1H-pyrazol-4-yl}-1,2,4-oxadiazol-3-yl)propan-2-yl]pyridin-2-yl}pyrimidin-2-amine]
[1]
  IC50: 1500 nM
[2]
  IC50: 300 nM

## CC(C)Nc1cnc(-c2nc([C@@](C)(c3ccc(-c4cnc(N)nc4)nc3)C(C)C)no2)cn1 [Example 92, 5-[5-{(R)-1-[5-(5-Isopropylamino-pyrazin-2-yl)-[1,2,4]oxadiazol-3-yl]-1,2-dimethyl-propyl}-pridin-2-yl)-pyrimidin-2-ylamine]
[1]
  IC50: 92 nM
[2]
  IC50: 15 nM

## CC(C)Nc1cnc(-c2nc([C@](C)(c3ccc(-c4cnc(N)nc4)nc3)C(C)C)no2)cn1 [Example 93, 5-(5-{(S)-1-[5-(5-Isopropylamino-pyrazin-2-yl)-[1,2,4]oxadiazol-3-yl]-1,2-dimethyl-propyl}-pyridin-2-yl)-pyrimidin-2-ylamine]
[1]
  IC50: 28 nM
[2]
  IC50: 21 nM

## CC(C)[C@](C)(c1ccc(-c2cnc(N)nc2)nc1)c1noc(-c2cnc(NC(C)(C)CO)cn2)n1 [Example 94, 2-[5-(3-{(R)-1-[6-(2-Amino-pyrimidin-5-yl)-pyridin-3-yl]-1,2-dimethyl-propyl}-[1,2,4]oxadiazol-5-yl)-pyrazin-2-ylamino]-2-methyl-propan-1-ol]
[1]
  IC50: 74 nM
[2]
  IC50: 26 nM

## CC(C)[C@@](C)(c1ccc(-c2cnc(N)nc2)nc1)c1noc(-c2cnc(NC(C)(C)CO)cn2)n1 [Example 95, 2-[5-(3-{(S)-1-[6-(2-Amino-pyrimidin-5-yl)-pyridin-3-yl]-1,2-dimethyl-propyl}-[1,2,4]oxadiazol-5-yl)-pyrazin-2-ylamino]-2-methyl-propan-1-ol]
[1]
  IC50: 210 nM
[2]
  IC50: 92 nM

## CC(C)[C@](C)(c1ccc(-c2cnc(N)nc2)nc1)c1noc(-c2cnn(C3CCS(=O)(=O)C3)c2)n1 (stereo partly drawn) [Example 96, 5-[5-((R)-1-{5-[1-(1,1-Dioxo-tetrahydro-116-thiophen-3-yl)-1H-pyrazol-4-yl]-[1,2,4]oxadiazol-3-yl}-1,2-dimethyl-propyl)-pyridin-2-yl]-pyrimidin-2-ylamine]
[1]
  IC50: 240 nM
[2]
  IC50: 9.9 nM

## CC(C)[C@](C)(c1ccc(-c2cnc(N)nc2)nc1)c1noc(-c2cnn(CCN(C)C)c2)n1 [Example 97, 5-[5-((R)-1-{5-[1-(2-Dimethylamino-ethyl)-1H-pyrazol-4-yl]-[1,2,4]oxadiazol-3-yl}-1,2-dimethyl-propyl)-pyridin-2-yl]-pyrimidin-2-ylamine]
[1]
  IC50: 30 nM
[2]
  IC50: 7.9 nM

## CC(c1ccc(-c2ccc(N)nc2)nc1)(c1noc(-c2cn[nH]c2)n1)C1CC1 (stereo not drawn) [Example 98, 5-{1-Cyclopropyl-1-[5-(1H-pyrazol-4-yl)-[1,2,4]oxadiazol-3-yl]-ethyl}-[2,3′]bipyridinyl-6′-ylamine]
[1]
  IC50: 500 nM
[2]
  IC50: 26 nM

## CN(C)CCn1cc(-c2nc([C@@](C)(c3ccc(-c4cnc(N)nc4)nc3)C3CC3)no2)cn1 [Example 99, 5-[5-((R)-1-Cyclopropyl-1-{5-[1-(2-dimethylamino-ethyl)-1H-pyrazol-4-yl]-[1,2,4]oxadiazol-3-yl}-ethyl)-pyridin-2-yl]-pyrimidin-2-ylamine]
[1]
  IC50: 150 nM
[2]
  IC50: 32 nM
